Reference: patent US20090274731A1, “PRODUCTION OF ENVELOPED PHARMACEUTICAL DOSAGE FORMS” (ABBOTT GMBH & CO. KG, priority 2006, published 2009)

Test: Relative solubility of paracetamol in the release media
Format: physicochemical
Details: in 20% ethanol compared with 0.01 M HCl; in words

SMILES: CC(=O)Nc1ccc(O)cc1 [paracetamol]
- solubility: distinctly more soluble
